In PubChem BioAssay AID248 (DTP/NCI, 2004):
Inconclusive results and toxic doses are left out. Rule as the data show it: active = T/C of 150% or more; inactive = T/C below 125%.

System: L1210 leukemia ip in BDF1 mice, survival T/C
Experiment: NCI In Vivo Anticancer Drug Screen. Data for tumor model L1210 Leukemia (intraperitoneal) in B6D2F1 (BDF1) mice
Conditions: endpoint: mean survival time, higher = longer survival
How it was run: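 Transplantable tumor model; survival measured in treated vs vehicle control mice. Value = treated/control.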

[1] = dose: 50.0 mg/kg/injection, schedule: Q04DX003 (ip), vehicle: saline with Tween-80
[2] = dose: 100.0 mg/kg/injection, schedule: Q04DX003 (ip), vehicle: saline with Tween-80
[3] = dose: 100.0 mg/kg/injection, schedule: Q01DX001 (ip), vehicle: Klucel (hydroxypropylcellulose) (HPC)
[4] = dose: 200.0 mg/kg/injection, schedule: Q01DX001 (ip), vehicle: Klucel (hydroxypropylcellulose) (HPC)
[5] = dose: 400.0 mg/kg/injection, schedule: Q01DX001 (ip), vehicle: Klucel (hydroxypropylcellulose) (HPC)
[6] = dose: 25.0 mg/kg/injection, schedule: Q04DX003 (ip), vehicle: saline
[7] = dose: 100.0 mg/kg/injection, schedule: Q04DX003 (ip), vehicle: saline
[8] = dose: 100.0 mg/kg/injection, schedule: Q04DX003 (ip), vehicle: Klucel (hydroxypropylcellulose) (HPC)
[9] = dose: 200.0 mg/kg/injection, schedule: Q04DX003 (ip), vehicle: Klucel (hydroxypropylcellulose) (HPC)
[10] = dose: 400.0 mg/kg/injection, schedule: Q04DX003 (ip), vehicle: Klucel (hydroxypropylcellulose) (HPC)
[11] = dose: 50.0 mg/kg/injection, schedule: Q01DX001 (ip), vehicle: saline
[12] = dose: 100.0 mg/kg/injection, schedule: Q01DX001 (ip), vehicle: saline
[13] = dose: 200.0 mg/kg/injection, schedule: Q01DX001 (ip), vehicle: saline
[14] = dose: 400.0 mg/kg/injection, schedule: Q01DX001 (ip), vehicle: saline
[15] = dose: 100.0 mg/kg/injection, schedule: Q04DX002 (ip), vehicle: Klucel (hydroxypropylcellulose) (HPC)
[16] = dose: 200.0 mg/kg/injection, schedule: Q04DX002 (ip), vehicle: Klucel (hydroxypropylcellulose) (HPC)
[17] = dose: 200.0 mg/kg/injection, schedule: Q04DX003 (ip), vehicle: saline with Tween-80
[18] = dose: 400.0 mg/kg/injection, schedule: Q04DX003 (ip), vehicle: saline with Tween-80
[19] = dose: 200.0 mg/kg/injection, schedule: Q04DX003 (ip), vehicle: saline
[20] = dose: 25.0 mg/kg/injection, schedule: Q04DX002 (ip), vehicle: Klucel (hydroxypropylcellulose) (HPC)
[21] = dose: 50.0 mg/kg/injection, schedule: Q04DX002 (ip), vehicle: Klucel (hydroxypropylcellulose) (HPC)

Measured: T/C

OC1CC2CCC(C1)N2CCCN1c2ccccc2Sc2ccc(Cl)cc21 (stereo not given)
inactive: dose: 25.0 mg/kg/injection, schedule: Q01DX009 (ip), vehicle: saline with Tween-80 112 % of control | dose: 50.0 mg/kg/injection, schedule: Q01DX009 (ip), vehicle: saline with Tween-80 87 % of control | [1] 97 % of control | [2] 112 % of control | dose: 133.0 mg/kg/injection, schedule: Q04DX003 (ip), vehicle: saline with Tween-80 107 % of control

Oc1ccccc1C=NCCCN1CC1.[Ni+2].[O-]c1ccccc1C=NCCCN1CC1
inactive: [3] 114 % of control | [4] 87 % of control | [5] 104 % of control

Cc1cc(N(CCCl)CCCl)ccc1C=Nc1cc(Br)cc(Br)c1
inactive: dose: 100.0 mg/kg/injection, schedule: Q01DX001 (ip), vehicle: carboxymethylcellulose (CMC) 101 % of control | dose: 200.0 mg/kg/injection, schedule: Q01DX001 (ip), vehicle: carboxymethylcellulose (CMC) 110 % of control | dose: 400.0 mg/kg/injection, schedule: Q01DX001 (ip), vehicle: carboxymethylcellulose (CMC) 108 % of control

CC1=CC(=O)NC1=O
inactive: [6] 103 % of control | dose: 50.0 mg/kg/injection, schedule: Q04DX003 (ip), vehicle: saline 98 % of control | [7] 97 % of control

CC1(C)Oc2nc(N)nc(N)c2C1c1ccc(Cl)cc1 (stereo not given)
inactive: [8] 106 % of control | [9] 97 % of control | [10] 103 % of control

CC1(C)CCC(NC(=O)NCCF)CC1
inactive: dose: 9.5 mg/kg/injection, schedule: Q01DX001 (ip), vehicle: other 95 % of control | dose: 19.0 mg/kg/injection, schedule: Q01DX001 (ip), vehicle: other 102 % of control | dose: 38.0 mg/kg/injection, schedule: Q01DX001 (ip), vehicle: other 101 % of control

CCCCCCC1CCCc2ccc(CCCC)cc21 (stereo not given)
inactive: [11] 110 % of control | [12] 106 % of control | [13] 101 % of control | [14] 101 % of control

OCC1=CCc2ccccc21
inactive: dose: 100.0 mg/kg/injection, schedule: Q04DX002 (ip), vehicle: other 93 % of control | dose: 200.0 mg/kg/injection, schedule: Q04DX002 (ip), vehicle: other 93 % of control | dose: 400.0 mg/kg/injection, schedule: Q04DX002 (ip), vehicle: other 93 % of control

O=C(NCc1ccncc1)C(c1ccccc1)c1ccccc1
inactive: [15] 96 % of control | [16] 92 % of control

CCCCCCCCCC(=O)N(C)OC
inactive: [2] 87 % of control | [17] 88 % of control | [18] 92 % of control

O=C1CCCC2C(=O)CCCC12 (stereo not given)
inactive: dose: 100.0 mg/kg/injection, schedule: Q## X003 (ip), vehicle: saline 102 % of control | dose: 200.0 mg/kg/injection, schedule: Q## X003 (ip), vehicle: saline 98 % of control | dose: 400.0 mg/kg/injection, schedule: Q## X003 (ip), vehicle: saline 101 % of control

Cc1ccc(S(=O)(=O)N(CCCc2ccccc2)c2ccc(C(=O)NC(CCC(=O)O)C(=O)O)cc2)cc1 (stereo not given)
inactive: dose: 75.0 mg/kg/injection, schedule: Q01DX001 (ip), vehicle: gum acacia 101 % of control | dose: 150.0 mg/kg/injection, schedule: Q01DX001 (ip), vehicle: gum acacia 107 % of control | dose: 300.0 mg/kg/injection, schedule: Q01DX001 (ip), vehicle: gum acacia 93 % of control

CCOC(=O)Nc1c(O)cccc1N1CCOCC1
inactive: [15] 101 % of control | [16] 101 % of control | dose: 400.0 mg/kg/injection, schedule: Q04DX002 (ip), vehicle: Klucel (hydroxypropylcellulose) (HPC) 104 % of control

CN(C)CC1CCCCC1=O (stereo not given)
inactive: dose: 100.0 mg/kg/injection, schedule: Q01DX009 (ip), vehicle: saline with Tween-80 97 % of control | [8] 102 % of control | [7] 103 % of control | dose: 200.0 mg/kg/injection, schedule: Q01DX009 (ip), vehicle: saline with Tween-80 96 % of control | [9] 102 % of control | [19] 110 % of control | [10] 97 % of control | dose: 400.0 mg/kg/injection, schedule: Q04DX003 (ip), vehicle: saline 103 % of control

CCCCCCCCCCCCSCCCN
inactive: dose: 12.5 mg/kg/injection, schedule: Q04DX003 (ip), vehicle: saline with Tween-80 96 % of control | dose: 25.0 mg/kg/injection, schedule: Q04DX003 (ip), vehicle: saline with Tween-80 93 % of control | [1] 96 % of control

CCCCCCCC[Si](CCCCCCCC)CCCCCCCC
inactive: dose: 100.0 mg/kg/injection, schedule: Q04DX003 (ip), vehicle: acetone 95 % of control | dose: 200.0 mg/kg/injection, schedule: Q04DX003 (ip), vehicle: acetone 91 % of control | dose: 400.0 mg/kg/injection, schedule: Q04DX003 (ip), vehicle: acetone 98 % of control

O=C(CI)OCCCl
inactive: dose: 12.5 mg/kg/injection, schedule: Q01DX009 (ip), vehicle: other 94 % of control | dose: 25.0 mg/kg/injection, schedule: Q01DX009 (ip), vehicle: other 97 % of control | dose: 50.0 mg/kg/injection, schedule: Q01DX009 (ip), vehicle: other 97 % of control

NNC(=O)CC(=O)NN
inactive: [11] 97 % of control | [12] 106 % of control | [7] 110 % of control | [13] 97 % of control | [19] 111 % of control | [14] 97 % of control

O=C(O)c1cccc(Cl)c1.[Ni]
inactive: [20] 103 % of control | [21] 100 % of control | [15] 90 % of control

CCCCCCCCC[n+]1cccc(C(N)=O)c1
inactive: [2] 106 % of control

C=CCC1(/C(C)=C/C)C(=O)NC(=O)NC1=O
inactive: dose: 75.0 mg/kg/injection, schedule: Q01DX001 (ip), vehicle: saline 100 % of control | dose: 150.0 mg/kg/injection, schedule: Q01DX001 (ip), vehicle: saline 94 % of control

CCCCCC[P+](c1ccccc1)(c1ccccc1)c1ccccc1
inactive: dose: 6.25 mg/kg/injection, schedule: Q01DX009 (ip), vehicle: saline 99 % of control | dose: 6.25 mg/kg/injection, schedule: Q04DX003 (ip), vehicle: saline 101 % of control | dose: 12.5 mg/kg/injection, schedule: Q01DX009 (ip), vehicle: saline 107 % of control | dose: 12.5 mg/kg/injection, schedule: Q04DX003 (ip), vehicle: saline 100 % of control | dose: 25.0 mg/kg/injection, schedule: Q01DX009 (ip), vehicle: saline 98 % of control | [6] 103 % of control

C/C=C(/C(=O)NC(N)=O)C(C)C
inactive: dose: 25.0 mg/kg/injection, schedule: Q01DX009 (ip), vehicle: Klucel (hydroxypropylcellulose) (HPC) 114 % of control | dose: 50.0 mg/kg/injection, schedule: Q01DX009 (ip), vehicle: Klucel (hydroxypropylcellulose) (HPC) 97 % of control | dose: 100.0 mg/kg/injection, schedule: Q01DX009 (ip), vehicle: Klucel (hydroxypropylcellulose) (HPC) 111 % of control | dose: 200.0 mg/kg/injection, schedule: Q01DX009 (ip), vehicle: Klucel (hydroxypropylcellulose) (HPC) 103 % of control | dose: 400.0 mg/kg/injection, schedule: Q01DX009 (ip), vehicle: Klucel (hydroxypropylcellulose) (HPC) 103 % of control

CC(c1ccc2ccccc2c1)C1CCCCC1C(=O)O (stereo not given)
inactive: [2] 96 % of control | [17] 97 % of control | [18] 94 % of control

N#C/C(=C\c1cccn1Cc1cc2c(cc1[N+](=O)[O-])OCO2)C(N)=O
inactive: [20] 96 % of control | [21] 96 % of control | [15] 96 % of control

O=C1OC(/C=C/c2ccccc2)=NC/1=C\c1cccc([N+](=O)[O-])c1
inactive: [20] 93 % of control | [21] 104 % of control | [15] 89 % of control

O=C(c1ccccc1)c1cc2ccccc2oc1=O
inactive: [3] 103 % of control | [4] 98 % of control | [5] 90 % of control

N#Cc1c(N)n(C2OC(CO)C(O)C2O)c2ncnc(N)c12 (stereo not given)
inactive: dose: 1.0 mg/kg/injection, schedule: Q01DX005 (ip), vehicle: saline 115 % of control | dose: 2.0 mg/kg/injection, schedule: Q01DX005 (ip), vehicle: saline 120 % of control
